Experimental findings from US8003649B2 (AstraZeneca AB, priority 2007, dated 2011) are described below.

The target in this assay is T1, Androgen Receptor (AR) (Homo sapiens, UniProt P10275, T878A).
T1 construct: cell based immuno-fluorescence assay using the LNCaP prostate epithelial cell line; endogenous in cells; host or cells: LNCaP clone FGC (ATCC CRL-1740)
T1 sequence (P10275 1-920 T878A): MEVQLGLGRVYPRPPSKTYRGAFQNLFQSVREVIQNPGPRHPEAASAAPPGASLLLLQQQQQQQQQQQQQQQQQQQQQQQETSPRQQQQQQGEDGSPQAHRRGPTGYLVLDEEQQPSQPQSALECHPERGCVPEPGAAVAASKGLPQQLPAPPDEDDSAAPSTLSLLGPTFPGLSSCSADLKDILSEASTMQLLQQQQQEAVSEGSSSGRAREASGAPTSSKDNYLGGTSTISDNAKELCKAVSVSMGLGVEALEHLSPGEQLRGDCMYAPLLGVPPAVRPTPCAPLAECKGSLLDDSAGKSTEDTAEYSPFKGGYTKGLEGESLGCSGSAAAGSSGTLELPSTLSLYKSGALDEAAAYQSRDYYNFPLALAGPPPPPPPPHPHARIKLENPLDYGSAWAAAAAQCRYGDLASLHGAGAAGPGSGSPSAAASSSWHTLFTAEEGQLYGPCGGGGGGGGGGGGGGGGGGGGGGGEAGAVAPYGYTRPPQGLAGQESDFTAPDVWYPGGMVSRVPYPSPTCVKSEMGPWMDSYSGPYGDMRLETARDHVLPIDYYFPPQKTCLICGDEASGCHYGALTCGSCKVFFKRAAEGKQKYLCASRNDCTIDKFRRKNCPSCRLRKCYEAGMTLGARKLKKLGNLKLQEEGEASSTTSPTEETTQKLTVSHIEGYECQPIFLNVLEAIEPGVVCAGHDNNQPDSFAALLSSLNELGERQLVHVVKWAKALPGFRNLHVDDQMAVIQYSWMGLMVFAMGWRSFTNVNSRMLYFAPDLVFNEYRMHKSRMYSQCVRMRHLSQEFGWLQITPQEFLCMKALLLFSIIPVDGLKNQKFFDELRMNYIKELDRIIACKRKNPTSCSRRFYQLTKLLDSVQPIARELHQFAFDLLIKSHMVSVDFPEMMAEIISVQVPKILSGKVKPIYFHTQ
The experiment in a line: LNCaP Androgen Receptor Down-regulation Cell Assay (immunofluorescence end point). The conditions noted are these: LNCaP prostate carcinoma cells, compound incubation 20-22 hours, 50% reduction of the AR signal; read-out: Androgen Receptor Down-regulation Assay (a) IC50/μM. Type of assay: cell-based. Summed up: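 LNCaP cells in medium with 5% charcoal-stripped FBS were plated overnight, then treated with a compound dilution series for 20-22 h at 37° C. After fixation, permeabilisation and immunostaining, AR-associated green fluorescence was quantified by laser-scanning microplate cytometry; AR down-regulation expressed as IC50 from fitted dose-response curves.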
As for `COc1ccccc1CN1CCCN(c2ccc3nnc(C(F)(F)F)n3n2)CC1` [Example 167, 6-[4-[(2-methoxyphenyl)methyl]-1,4-diazepan-1-yl]-3-(trifluoromethyl)-[1,2,4]triazolo[4,3-b]pyridazine], the DC50 amounted to 2.4 µM. With `FC(F)c1ccc(CN2CCN(c3ccc4nnc(C(F)F)n4n3)CC2)cc1` [Example 826, 3-(difluoromethyl)-6-[4-[4-(difluoromethyl)benzyl]piperazin-1-yl][1,2,4]triazolo[4,3-b]pyridazine], the DC50 turned out to be 1.4 µM. `FC(F)(F)c1nnc2ccc(N3CCN(Cc4csc5ccccc45)CC3)nn12` [Example 60, 6-[4-(1-benzothiophen-3-ylmethyl)piperazin-1-yl]-3-(trifluoromethyl)-[1,2,4]triazolo[4,3-b]pyridazine]: the DC50 was 0.61 µM.

As for `CN1CCN(C(=O)c2ccc(OC3CCN(c4ccc5nnc(C(F)(F)F)n5n4)CC3)cc2)CC1` [Example 414], the DC50 was > 10 µM. Turning to `FC(F)(F)c1nnc2ccc(N3CCN(Cc4ccc(Cl)cc4)CC3)nn12` [Example 14, 6-[4-[(4-chlorophenyl)methyl]piperazin-1-yl]-3-(trifluoromethyl)-[1,2,4]triazolo[4,3-b]pyridazine], the DC50 was 0.69 µM. For `FC(F)(F)c1nnc2ccc(N3CCC(c4c[nH]c5cnccc45)CC3)nn12` [Example 327] the value was 1 µM.

As for `FC(F)(F)c1nnc2ccc(N3CCCN(Cc4cccc(Cl)c4)CC3)nn12` [Example 175, 6-[4-[(3-chlorophenyl)methyl]-1,4-diazepan-1-yl]-3-(trifluoromethyl)-[1,2,4]triazolo[4,3-b]pyridazine], the DC50 worked out at 0.68 µM. For `C[C@@H]1CN(c2ccc3nnc(C(F)(F)F)n3n2)CCN1Cc1cc(Br)cnc1F` [Example 835], the DC50 turned out to be 20 µM. For `N#Cc1cccc(-c2nc(C3CCN(c4ccc5nnc(C(F)(F)F)n5n4)CC3)no2)c1` [Example 303] the value was 5.8 µM; for `COc1ccc(CN2CCCN(c3ccc4nnc(C(F)(F)F)n4n3)CC2)cc1` [Example 181, 6-[4-[(4-methoxyphenyl)methyl]-1,4-diazepan-1-yl]-3-(trifluoromethyl)-[1,2,4]triazolo[4,3-b]pyridazine], 2.1 µM. For `FC(F)(F)c1ccc(OC2CCN(c3ccc4nnc(C(F)(F)F)n4n3)CC2)nc1` [Example 719] the value was 3.5 µM; for `COc1ccc(O[C@@H]2CCN(c3ccc4nnc(C(F)(F)F)n4n3)C2)cc1` [Example 582], 2.4 µM; for `FC(F)(F)c1nnc2ccc(N3CCC(c4ccc(OCCCN5CCNCC5)cc4)CC3)nn12` [Example 728, 6-[4-[4-(3-piperazin-1-ylpropoxy)phenyl]piperidin-1-yl]-3-(trifluoromethyl)[1,2,4]triazolo[4,3-b]pyridazine], 1.5 µM. For `Fc1ccc(CC2CCN(c3ccc4nnc(C(F)(F)F)n4n3)CC2)cc1` [Example 536] the value was 1.4 µM. For the compound `FC(F)(F)c1nnc2ccc(N3CCN(Cc4nc5ccccc5o4)CC3)nn12` [Example 49, 6-[4-(1,3-benzoxazol-2-ylmethyl)piperazin-1-yl]-3-(trifluoromethyl)-[1,2,4]triazolo[4,3-b]pyridazine], the DC50 came to 3.2 µM. In the case of `FC(F)(F)c1nnc2ccc(N3CCN(Cc4cnccn4)CC3)nn12` [Example 55, 6-[4-(pyrazin-2-ylmethyl)piperazin-1-yl]-3-(trifluoromethyl)-[1,2,4]triazolo[4,3-b]pyridazine], the DC50 came out at 8.8 µM. Regarding `FC(F)c1ccccc1CN1CCN(c2ccc3nnc(C(F)F)n3n2)CC1` [Example 824, 3-(difluoromethyl)-6-[4-[2-(difluoromethyl)benzyl]piperazin-1-yl][1,2,4]triazolo[4,3-b]pyridazine], the DC50 is 1.9 µM. On to `CN(C)CCNC(=O)c1cccc(OC2CCN(c3ccc4nnc(C(F)(F)F)n4n3)CC2)c1` [Example 696], for which the DC50 turned out to be 4.2 µM.

`FC(F)(F)c1nnc2ccc(N3CCN(Cc4cccc(Oc5ccc(Cl)cc5)c4)CC3)nn12` [Example 119, 6-[4-[[3-(4-chlorophenoxy)phenyl]methyl]piperazin-1-yl]-3-(trifluoromethyl)-[1,2,4]triazolo[4,3-b]pyridazine]: the DC50 was 2.2 µM. For `CN1CCC(Oc2ccc(OC3CCN(c4ccc5nnc(C(F)(F)F)n5n4)CC3)cc2)CC1` [Example 436] the value was 0.75 µM; for `N#Cc1ccccc1C1(O)CCN(c2ccc3nnc(C(F)(F)F)n3n2)CC1` [Example 317, 2-[4-hydroxy-1-[3-(trifluoromethyl)[1,2,4]triazolo[4,3-b]pyridazin-6-yl]piperidin-4-yl]benzonitrile], 4.1 µM; for `CN(C)CCCOc1ccc(OC2CCN(c3ccc4nnc(C(F)(F)F)n4n3)CC2)cc1` [Example 430, N,N-dimethyl-3-[4-[[1-[3-(trifluoromethyl)-[1,2,4]triazolo[4,3-b]pyridazin-6-yl]piperidin-4-yl]oxy]phenoxy]propan-1-amine], 1.7 µM.

On to `COc1ccc(OC2CN(c3ccc4nnc(C(F)(F)F)n4n3)C2)cc1` [Example 486], for which the DC50 is > 13 µM. Consider `C[C@@H]1CN(c2ccc3nnc(C(F)(F)F)n3n2)CCN1Cc1ccc(F)c(C#N)c1` [Example 569], for which the DC50 came out at 2.7 µM. For `FC(F)(F)c1nnc2ccc(N3CC4CN(Cc5cccnc5Br)CC4C3)nn12` (stereo not shown) [Example 796] the value was 0.63 µM; for `Fc1ccc(CN2CC3CN(c4ccc5nnc(C(F)(F)F)n5n4)CC3C2)cc1` (stereo not shown) [Example 203, 6-[2-[(4-fluorophenyl)methyl]-1,3,3a,4,6,6a-hexahydropyrrolo[3,4-c]pyrrol-5-yl]-3-(trifluoromethyl)-[1,2,4]triazolo[4,3-b]pyridazine], 1.7 µM. For `CN(Cc1cccnc1)C1CCN(c2ccc3nnc(C(F)(F)F)n3n2)CC1` [Example 406, N-methyl-N-(pyridin-3-ylmethyl)-1-[3-(trifluoromethyl)[1,2,4]triazolo[4,3-b]pyridazin-6-yl]piperidin-4-amine] the value was 6.3 µM; for `C[C@@H]1CN(c2ccc3nnc(C(F)(F)F)n3n2)CCN1Cc1cccnc1Cl` [Example 832], 1.4 µM.

Consider `FC(F)(F)c1nnc2ccc(N3CCC(c4cccc(OCCN5CCCC5)c4)CC3)nn12` [Example 671], for which the DC50 was 1.6 µM. For `COCCOCC1CCN(c2ccc3nnc(C(F)(F)F)n3n2)CC1` [Example 296] the value was 2.1 µM; for `COCCN(C)C(=O)c1ccc(N2CCN(c3ccc4nnc(C(F)(F)F)n4n3)CC2)cc1` [Example 751], 6.3 µM; for `COc1ccc(CN2CCN(c3ccc4nnc(C(F)F)n4n3)CC2)cc1F` [Example 261], 7.9 µM. Take `CC(C)Cc1ccc(CN2CCN(c3ccc4nnc(C(F)(F)F)n4n3)CC2)cc1` [Example 123, 6-[4-[[4-(2-methylpropyl)phenyl]methyl]piperazin-1-yl]-3-(trifluoromethyl)-[1,2,4]triazolo[4,3-b]pyridazine]: the DC50 is 4.1 µM. For `FC(F)(F)c1nnc2ccc(N3CC[C@H](Oc4ccncc4)C3)nn12` [Example 588, 6-[(3S)-3-(pyridin-4-yloxy)pyrrolidin-1-yl]-3-(trifluoromethyl)[1,2,4]triazolo[4,3-b]pyridazine] the value was 5.3 µM; for `Fc1ccc(F)c(CN2CCN(c3ccc4nnc(C(F)(F)F)n4n3)CC2)c1` [Example 386], 2.4 µM; for `FC(F)(F)c1nnc2ccc(N3CCN(Cc4cncc(Br)c4)CC3)nn12` [Example 774], 8 µM. Take `FC(F)(F)c1nnc2ccc(N3CCN(Cc4cccc5nccnc45)CC3)nn12` [Example 103, 5-[[4-[3-(trifluoromethyl)[1,2,4]triazolo[4,3-b]pyridazin-6-yl]piperazin-1-yl]methyl]quinoxaline]: the DC50 stood at 6.2 µM. Turning to `COc1ncc(C2=CCN(c3ccc4nnc(C(F)(F)F)n4n3)CC2)cc1F` [Example 609], the DC50 worked out at 6.6 µM.

Take `Fc1ccc(Oc2ccc(CN3CCN(c4ccc5nnc(C(F)(F)F)n5n4)CC3)cc2)cc1` [Example 126, 6-[4-[[4-(4-fluorophenoxy)phenyl]methyl]piperazin-1-yl]-3-(trifluoromethyl)-[1,2,4]triazolo[4,3-b]pyridazine]: the DC50 was 2 µM.

Turning to `Fc1ccc(CN2CCCN(c3ccc4nnc(C(F)(F)F)n4n3)CC2)cc1` [Example 177, 6-[4-[(4-fluorophenyl)methyl]-1,4-diazepan-1-yl]-3-(trifluoromethyl)-[1,2,4]triazolo[4,3-b]pyridazine], the DC50 turned out to be 0.77 µM.
